Data reported in patent publication US11369625B2, “Anti-tumor agent, anti-tumor effect enhancer, and anti-tumor kit” (FUJIFILM Corporation, priority 2017, dated 2022).

Assays:
tumor = conditions: oral administration to mice; cited from earlier work
[1] = test system: human pancreatic cancer cell line Capan-1; assay: Combinational effect test in Capan-1 subcutaneously implanted tumor-bearing model mouse (anti-tumor effect); type: in vivo, BALB/cA Jcl-nu mice; design: key to vs. control: * statistically significant; conditions: for T/C (%): average RTV of treated group / average RTV of control group x 100, Day 33; for GC (%): growth of control, calculated from RTV at Day 33; for RTV (mean ± standard deviation): relative tumor volume, TV at Day 33 / TV at Day 1, tail vein once a week, three times, n=8; for vs. control: statistical significance of RTV vs. control group, Day 33
Description: Combinational effect test in Capan-1 subcutaneously implanted tumor-bearing model mouse
Gemcitabine (hereinafter, also referred to as Gem), Abraxane (hereinafter, also referred to as Abx), and methanesulfonate of Compound A were used as test substances.
Gemcitabine was prepared by dissolving gemcitabine hydrochloride (manufactured by Teva Pharmaceutical Industries Limited) in physiological saline. Abraxane was prepared by dissolving Abraxane (manufactured by Celgene Corporation) in physiological saline.
Capan-1 cell, a human pancreatic cancer cell line, was subcutaneously injected into the posterior flank of 5 to 6-week old female BALB/cA Jcl-nu mice. After tumor implantation, the major diameter (mm) and minor diameter (mm) of the tumor were measured, and the tumor volume (TV) was calculated. Mice were assigned to each group so that the average TV of each group was equal, and the day on which this grouping (n=8) was carried out was taken as Day 1.
The test liquid in Abraxane alone group was prepared to be 30 mg/kg/day as the administration dose. In addition, the test liquid in Compound A alone group was prepared to be 480 mg/kg/day. Compound A was administered from the mouse tail vein a total of three times from Day 1 once a week, and Abraxane was similarly administered from the mouse tail vein a total of three times from Day 1 once a week. In the combined administration group, Compound A was administered at 480 mg/kg/day and Abraxane was administered at 30 mg/kg/day.
As a comparative experiment, gemcitabine was used as a control. The test liquid of gemcitabine alone group was prepared to be 240 mg/kg/day. Gemcitabine was administered from the mouse tail vein a total of three times from Day 1 once a week. In the combined administration group, gemcitabine was administered at 240 mg/kg/day and Abraxane was administered at 30 mg/kg/day.
In this test, doses of Compound A and gemcitabine were set using MTD of each drug. Abraxane was used at the maximum dose usable in combination with each drug. […] In this test example, the MTD and the maximum effect dose are almost synonymous.
As an index of anti-tumor effect, TV at Day 33 was measured in each drug administration group. According to the following equation, a relative tumor volume (RTV) with respect to Day 1 and T/C (%) were calculated to evaluate the anti-tumor effect. […] TV (mm^3)=(major diameter×minor diameter^2)/2 RTV=(TV at Day 33)/(TV at Day 1) T/C (%)=[(average RTV value of test liquid administered group)/(average RTV value of control group)]×100
On the combinational effect of the present invention, the results of evaluation using a combination index (CI) which is a quantitative index of the combinational effect are shown. The CI can be calculated by the following equation according to Cancer Research, 2010, Vol. 70, pp. 440 to 446.
That is, in the case where the drugs to be used in combination are drugs 1 and 2, CI=(T/C at the time of combination use)÷100/{[(T/C of drug 1)÷100]×[(T/C of drug 2)÷100]} CI=1: additive effect CI>1: antagonistic effect CI<1: synergistic effect
In addition, on the combinational effect of the present invention, the results of evaluation using a tumor growth inhibitory effect (growth of control (GC)) are shown. For the evaluation method, the same method as in B of FIG. 5 of Molecular Cancer Therapeutics, 2013, Vol. 12, pp. […] was used.
As described in the above document, the GC can be calculated by the following equation. In the case where RTV>1 GC (%)=[(corresponding drug RTV-1)/(control RTV-1)]×100 [1] In the case where RTV≤1 GC (%)=(corresponding drug RTV-1)×100 [2]
Combinational effect was estimated from the drug efficacy with Abraxane and Compound A or gemcitabine alone by the following calculation equation. The estimated combination use GC (%)=[GC (%) of Abraxane×drug alone GC (%)]÷100

Compound | anti-tumor activity (tumor) | enhancement of anti-tumor effect in combination use ([1]; Compound A 480 mg/kg/day with Abraxane 30 mg/kg/day, nude mice) | T/C (%) [1] | GC (%) [1] | RTV (mean ± standard deviation) [1] | vs. control [1]
Nc1ccn([C@@H]2S[C@H](CO)[C@@H](O)[C@@H]2F)c(=O)n1 [Compound A, 1-(2-deoxy-2-fluoro-4-thio-β-D-arabinofuranosyl)cytosine] | potent anti-tumor activity | significantly enhanced the anti-tumor effect of Abraxane | 32.2% | 9.6% | 1.29 ± 0.59 | *
Nc1ccn([C@@H]2O[C@H](CO)[C@@H](O)C2(F)F)c(=O)n1 [Gem, gemcitabine, reference compound] |  |  | 68.3% | 57.8% | 2.74 ± 0.41 | *
